The results in this text go back to patent US20250154169A1, “COMPOUNDS AND METHODS FOR MODULATING SPLICING” (REMIX THERAPEUTICS INC., priority 2021, published 2025).

Like-named read-outs stand apart in the source and are kept apart here.

The subject of one assay is HTT. The assay can be described thus: Protein abundance, HiBit-assay system (Promega), HTT. The format is cell-based. The conditions noted are these: Table 6; HiBiT-modified K562 cells, 24 hours. An excerpt: In some embodiments, a compound of Formula (I) or (II) or a pharmaceutically acceptable salt thereof, e.g., as described herein, modulates the expression of a target protein (e.g., HTT or MYB) in a reference cell or sample. In an embodiment, a compound of Formula (I) or (II) or a pharmaceutically acceptable salt thereof, e.g., as described herein, increases the expression of a target protein (e.g., HTT or MYB) in a reference cell or sample. In an embodiment, a compound of Formula (I) or (II) or a pharmaceutically acceptable salt thereof, e.g., as described herein, decreases the expression of a target protein (e.g., HTT or MYB) in a reference cell or sample. The effect of an exemplary compound of Formula (I) or (II) on protein abundance may be measured using a standard assay for measuring protein abundance, such as the HiBit-assay system (Promega). In this assay, percent response for each respective cell line may be as calculated at each compound concentration as follows: % response=100*(S−PC)/(NC−PC). For the normalized response at each concentration, a four-parameter logistical regression may be fit to the data and the response may be interpolated at the 50% value to determine a concentration for protein abundance at 50% (IC50) an untreated control. In an embodiment, a compound of Formula (I) or (II) or a pharmaceutically acceptable salt thereof, e.g., as described herein, has a protein abundance response less than 100 nM. In an embodiment, a compound of Formula (I) or (II) or a pharmaceutically acceptable salt thereof, e.g., as described herein, has a protein abundance response between 100-1000 nM. In an embodiment, a compound of Formula (I) or (II) or a pharmaceutically acceptable salt thereof, e.g., as described herein, has a protein abundance response greater than 1000 nM. In an embodiment, a compound of Formula (I) or (II) or a pharmaceutically acceptable salt thereof, e.g., as described herein, has a protein abundance response greater than 10 uM. In an embodiment, a compound of Formula (I) or (II) or a pharmaceutically acceptable salt thereof, e.g., as described herein, modulates the protein abundance of a target protein by about 1%, 5%, 10%, 15%, 20%, 25%, 30%, 35%, 40%, 45%, 50%, 55%, 60%, 65%, 70%, 75%, 80%, 85%, 90%, 95%, 99% or more, e.g., compared with a reference compound.
(In general: HiBiT is a short tag that completes a luciferase, so light tracks the accessible tagged protein.)

The subject of the next assay is K562 cells. The assay can be described thus: Cell Titer Glo 2.0 cell viability assay, K562. The conditions noted are these: Homo sapiens, 72 hours incubation. The format is cell-based.
Another assay relates to MYB mRNA. In words: Splicing RT-qPCR assay, MYB canonical (CJ) and alternative (AJ) junction mRNA. The format is cell-based, human. The conditions noted are these: Homo sapiens; for AC50: read-out: MYB AJ (AC50, increase in alternative junction mRNA). An outline of the steps:
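Read-out is the abundance of canonical-junction versus new alternative-exon-junction mRNA, determined by real-time qPCR after cDNA synthesis and normalized to a housekeeping gene. It is measured in A673 or K562 cells exposed to compounds for 24 h, top dose 10 uM.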

[1] abbreviates: Tables 4A/4B, canonical junction qPCR panel, read-out: MYB (IC50, decrease in CJ mRNA, gene panel).
Where [2] appears, read: 24 h, A673 or K562 cells, 24 hours compound treatment, RT-qPCR.
The mark [3] stands for this setting: 24 h, A673 or K562 cells, 24 hours compound treatment, RT-qPCR, read-out: MYB CJ (IC50, decrease in canonical junction mRNA).

Procedure for K562 cells: Compounds described herein were screened for toxicity in K562 (human chronic myelogenous leukemia) and SH-SY5Y (human neuroblastoma) cells using a Cell Titer Glo 2.0 assay.
• Promega CellTiter-Glo® 2.0 Cell Viability Assay (cat #G9241) • Corning 384-well TC-treated microplates (cat #3570)
Cells were plated at 500 cells/well (K562 cells) in 45 μL of IMDM supplemented with 10% FBS in a 384-well opaque plate. Wells containing only medium were used as a blank control. Test compounds (e.g., compounds of Formula (I) or (II)) were first serially diluted in DMSO then diluted 1:100 with EIDM+10% FBS. The final concentration of DMSO was 0.1% in each well. The cells were incubated for 72 hours at 37° C. and 5% CO2 before assaying with Cell Titer Glo 2.0 reagent.

Take `Cc1cn2nc(NC(=O)c3ccc(C4CCNCC4)c4cc(C)oc34)cc(C)c2n1` [Compound 118]: the IC50 with HTT and in the assay with MYB mRNA (setting [1]) was 100 to 1000 nM throughout. In the assay on K562 cells, the GI50 lay in the range of 100 to 1000 nM.

With `Cc1cn2nc(NC(=O)c3ccc(C4CCNCC4)c4ccoc34)cc(C)c2n1` [Compound 119], the IC50 in the assay on HTT, in the assay with MYB mRNA (setting [3]) and with MYB mRNA (setting [1]) was 1000 to 10000 nM in each case. This compound displayed a GI50 in the assay with K562 cells of 1000 to 10000 nM. In the assay with MYB mRNA (setting [2]), the AC50 is 1000 to 10000 nM.

Consider `Cc1cn2cc(NC(=O)c3ccc(N4CCNCC4)c4nc(C)oc34)cc(F)c2n1` [Compound 140], for which the 50% inhibitory concentration (IC50) with HTT and in the assay with MYB mRNA (setting [1]) was 1000 to 10000 nM throughout. For the same compound, the GI50 in the assay on K562 cells lay within 1000 to 10000 nM.

Consider `Cc1cn2cc(NC(=O)c3ccc(N4CCNCC4)c4oc(C)nc34)cc(F)c2n1` [Compound 141], for which the IC50 with HTT was 100 to 1000 nM; in the assay with MYB mRNA (setting [3]), less than 100 nM; with MYB mRNA (setting [1]), less than 100 nM. For the same compound, the concentration for 50% growth inhibition (GI50) with K562 cells fell in the range of 100 to 1000 nM. The AC50 in the assay on MYB mRNA (setting [2]) was less than 100 nM.

As to `Cc1cn2cc(NC(=O)c3ccc(N4CCNCC4)c4cc(C)oc34)cc(F)c2n1` [Compound 142], the IC50 with HTT, in the assay on MYB mRNA (setting [3]) and in the assay with MYB mRNA (setting [1]) was 100 to 1000 nM throughout. The compound also came in with a GI50 in the assay with K562 cells of 100 to 1000 nM. For the same compound, the AC50 in the assay with MYB mRNA (setting [2]) was 100 to 1000 nM.

In the case of `Cc1cn2cc(NC(=O)c3ccc(N4CCNCC4)c4cn(C)nc34)cc(F)c2n1` [Compound 143, N-{8-fluoro-2-methylimidazo[1,2-a]pyridin-6-yl}-2-methyl-4-(piperazin-1-yl) indazole-7-carboxamide], the half-maximal inhibitory concentration (IC50) in the assay with HTT and in the assay with MYB mRNA (setting [1]) was less than 100 nM in each case. Moreover, the GI50 in the assay on K562 cells lay in the range of 100 to 1000 nM.

Take `Cc1cn2cc(NC(=O)c3ccc(C4CCNCC4)c4cc(C)oc34)cc(F)c2n1` [Compound 145]: the IC50 with HTT lay in the range of 1000 to 10000 nM; in the assay on MYB mRNA (setting [3]), 100 to 1000 nM; in the assay with MYB mRNA (setting [1]), 100 to 1000 nM. Moreover, the AC50 with MYB mRNA (setting [2]) is 100 to 1000 nM.

`Cc1cn2nc(NC(=O)c3ccc(N4CCNCC4)c4cc(C)oc34)cc(C)c2n1` [Compound 148]: the IC50 with HTT, in the assay with MYB mRNA (setting [3]) and with MYB mRNA (setting [1]) was 1000 to 10000 nM throughout. In addition, the GI50 in the assay on K562 cells was in the range of 1000 to 10000 nM. Besides, the AC50 in the assay with MYB mRNA (setting [2]) fell in the range of 1000 to 10000 nM.

Take `Cc1cn2cc(NC(=O)c3ccc(C4CCNCC4)c4ccoc34)cc(F)c2n1` [Compound 149]: the IC50 was in the range of 1000 to 10000 nM in the assay on HTT, 100 to 1000 nM with MYB mRNA (setting [3]) and 100 to 1000 nM in the assay with MYB mRNA (setting [1]). For the same compound, the GI50 in the assay with K562 cells is 100 to 1000 nM. Further, the AC50 with MYB mRNA (setting [2]) was 100 to 1000 nM.

As for `Cc1cn2cc(NC(=O)c3ccc(N4CCN(C)CC4)c4cc(C)oc34)cc(F)c2n1` [Compound 189], the IC50 in the assay with HTT is more than 10000 nM; in the assay on MYB mRNA (setting [3]) it was 100 to 1000 nM; in the assay on MYB mRNA (setting [1]) it was 100 to 1000 nM. In addition, the GI50 in the assay with K562 cells was 100 to 1000 nM. In addition, in the assay on MYB mRNA (setting [2]), the AC50 is 100 to 1000 nM.

In the case of `Cc1cn2cc(NC(=O)c3ccc(N4CCNC(C)C4)c4cc(C)oc34)cc(F)c2n1` (centres unmarked) [Compound 190], the IC50 is 100 to 1000 nM with HTT, less than 100 nM with MYB mRNA (setting [3]) and less than 100 nM with MYB mRNA (setting [1]). The GI50 with K562 cells lay in the range of 100 to 1000 nM. Moreover, in the assay on MYB mRNA (setting [2]), the AC50 is less than 100 nM.

For the compound `Cc1cn2cc(NC(=O)c3ccc(N4CCN(C)C(C)C4)c4cc(C)oc34)cc(F)c2n1` (centres unmarked) [Compound 191], the GI50 in the assay on K562 cells lay in the range of 100 to 1000 nM. For the same compound, the AC50 with MYB mRNA (setting [2]) was in the range of 100 to 1000 nM. Moreover, the IC50 in the assay on MYB mRNA (setting [3]) and in the assay with MYB mRNA (setting [1]) was 100 to 1000 nM throughout.

For `CCC1CN(c2ccc(C(=O)Nc3cc(F)c4nc(C)cn4c3)c3oc(C)cc23)CCN1` (centres unmarked) [Compound 192], the IC50 in the assay on HTT was 1000 to 10000 nM; in the assay on MYB mRNA (setting [3]), 100 to 1000 nM; in the assay on MYB mRNA (setting [1]), 100 to 1000 nM. This compound also came in with a GI50 in the assay on K562 cells of 100 to 1000 nM. Moreover, the AC50 with MYB mRNA (setting [2]) lay within 100 to 1000 nM.

For `Cc1cn2cc(NC(=O)c3ccc(N4CCNC(C)(C)C4)c4cc(C)oc34)cc(F)c2n1` [Compound 193], the IC50 with HTT was in the range of 1000 to 10000 nM; in the assay with MYB mRNA (setting [3]), 100 to 1000 nM; in the assay with MYB mRNA (setting [1]), 100 to 1000 nM. This compound also came in with a GI50 in the assay with K562 cells of 100 to 1000 nM. Besides, the AC50 with MYB mRNA (setting [2]) fell in the range of 100 to 1000 nM.

As usually defined, the IC50 is the concentration that gives 50% inhibition. As a reminder, the GI50 is the concentration that inhibits growth by half. As usually defined, the AC50 is the concentration at which the activity in the assay is half-maximal.
